{
  "source": "patent US20240308976A1",
  "about": "“COMPOUNDS THAT MEDIATE PROTEIN DEGRADATION AND USES THEREOF” (Monte Rosa Therapeutics, Inc., priority 2021, published 2024)",
  "data": [
    {"target": "CRBN-DDB1 (Homo sapiens, UniProt Q96SW2)", "sequence (Q96SW2 whole entry)": "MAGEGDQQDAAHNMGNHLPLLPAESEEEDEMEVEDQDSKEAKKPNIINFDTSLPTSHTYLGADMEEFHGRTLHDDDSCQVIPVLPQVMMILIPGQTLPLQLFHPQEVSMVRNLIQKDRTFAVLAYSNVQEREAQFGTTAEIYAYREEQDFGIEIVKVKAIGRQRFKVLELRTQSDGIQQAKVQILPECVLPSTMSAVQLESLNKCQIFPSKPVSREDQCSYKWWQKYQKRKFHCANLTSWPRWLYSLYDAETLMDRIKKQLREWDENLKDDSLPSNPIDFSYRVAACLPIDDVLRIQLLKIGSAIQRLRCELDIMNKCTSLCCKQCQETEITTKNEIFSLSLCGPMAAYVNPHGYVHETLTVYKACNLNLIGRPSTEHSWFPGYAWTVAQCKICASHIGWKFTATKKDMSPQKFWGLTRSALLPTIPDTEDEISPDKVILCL", "sequence (Q16531 whole entry partner)": "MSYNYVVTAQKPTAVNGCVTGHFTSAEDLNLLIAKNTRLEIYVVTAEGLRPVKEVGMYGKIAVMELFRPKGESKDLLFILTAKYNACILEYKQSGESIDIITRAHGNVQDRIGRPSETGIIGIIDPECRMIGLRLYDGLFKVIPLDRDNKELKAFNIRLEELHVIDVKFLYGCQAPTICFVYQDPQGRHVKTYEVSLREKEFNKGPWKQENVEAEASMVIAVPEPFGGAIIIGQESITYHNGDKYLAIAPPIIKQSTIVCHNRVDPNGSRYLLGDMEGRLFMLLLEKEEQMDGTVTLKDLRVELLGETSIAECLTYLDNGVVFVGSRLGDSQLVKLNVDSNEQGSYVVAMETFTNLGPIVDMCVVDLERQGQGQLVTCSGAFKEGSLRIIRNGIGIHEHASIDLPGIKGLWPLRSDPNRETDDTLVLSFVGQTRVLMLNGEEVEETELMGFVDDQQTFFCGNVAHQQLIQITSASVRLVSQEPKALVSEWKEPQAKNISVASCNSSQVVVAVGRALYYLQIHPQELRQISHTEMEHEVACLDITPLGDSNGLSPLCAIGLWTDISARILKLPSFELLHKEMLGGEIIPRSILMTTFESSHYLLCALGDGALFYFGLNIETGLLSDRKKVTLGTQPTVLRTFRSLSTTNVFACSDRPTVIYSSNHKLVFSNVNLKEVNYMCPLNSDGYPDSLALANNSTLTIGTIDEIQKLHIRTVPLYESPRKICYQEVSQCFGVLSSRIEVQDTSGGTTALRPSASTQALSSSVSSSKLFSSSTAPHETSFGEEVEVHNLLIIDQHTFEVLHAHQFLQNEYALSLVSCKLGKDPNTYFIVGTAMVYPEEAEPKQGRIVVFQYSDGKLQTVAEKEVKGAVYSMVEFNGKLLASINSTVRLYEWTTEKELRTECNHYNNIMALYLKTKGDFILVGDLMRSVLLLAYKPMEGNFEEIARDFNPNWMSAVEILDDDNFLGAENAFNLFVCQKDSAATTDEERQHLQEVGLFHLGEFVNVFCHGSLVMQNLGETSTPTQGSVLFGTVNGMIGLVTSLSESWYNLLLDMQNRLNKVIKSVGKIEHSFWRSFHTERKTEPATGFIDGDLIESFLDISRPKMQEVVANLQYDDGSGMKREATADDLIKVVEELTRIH", "experiment": "Compound binding to CRBN by HTRF assay", "conditions": "CRBN-DDB1 2.5 nM, Cy5-Thalidomide 100 nM, 30 min at ambient temperature; read-out: HTRF Class (Cereblon binding, HTRF IC50)", "procedure": "Example 146: Compound Binding to CRBN by HTRF Assay\nCompound activity was monitored in a Homogenous Time-Resolved Fluorescence (HTRF) assay using 1-[5-({2-[2-(2-{[2-(2,6-dioxopiperidin-3-yl)-1,3-dioxo-2,3-dihydro-1H-isoindol-4-yl]oxy}acetamido)ethoxy]ethyl}carbamoyl)pentyl]-3,3-dimethyl-2-[(1E,3E)-5-[(2E)-1,3,3-trimethyl-5-sulfo-2,3-dihydro-1H-indol-2-ylidene]penta-1,3-dien-1-yl]-3H-indol-1-ium-5-sulfonate as a fluorescent probe. Biochemical assays were conducted in Greiner white 384 well HiBase plates (Cat. No 784075-25) in 10 μL total volume. A one pot detection solution of CRBN-DDB1 (2.5 nM), Anti-His Terbium Cryptate Gold (1X, PerkinElmer Cat. #: 61HI2TLB), and Cy5-Thalidomide (100 nM, Tenova Cat.: T52461) was prepared in 20 mM HEPES, 20 mM NaCl, 0.2 mM TCEP, 0.2 mM EDTA, and 0.005% Tween20 was dispensed to each assay plate. Compounds were stored in dry, ambient temperatures at 10 mM. A 10-point, 1:3 dilution series was prepared from 10 mM stock concentrations in Echo-compatible LDV plates. 10 nL of each compound dilution series was dispensed into assays wells using an Echo 650 (Labcyte inc. USA). 10 nL of 10 mM Lenalidomide was transferred into the active-control wells for the assay and 10 nL of DMSO was transferred into the neutral-control wells. The assay was then allowed to incubate for 30 min at ambient temperature after transferring compound. Plate measurements were taken on a Pherastar FSX (BMG Labtech, Germany) using the HTRF Red filter (Ex. 337 nm, em1: 620 nm, em2: 665 nm) (Flashes: 50, Integration time: 60-400 us, Z-height: 10 mm, Ratio-multiplier: 10,000). The HTRF signal was then subsequently normalized to the neutral and active controls. Analysis and IC50 values were derived using KNIME analytics (KNIME Zurich) transformation and fitting within Collaborative Drug Discovery (Collaborative Drug Discovery USA). Ki was derived from the geometric mean of the IC50 values using the Cheng-Prustoff transformation.\n(§1) In Table 2, each compound is assigned a class (HTRF class) indicating the ability for Cereblon binding by means of their HTRF IC50 values according to […]: A, B, C or D. According to the code, A represents an IC50 value of ≤100 nM, B represents an IC50 value>100 nM and ≤1000 nM, C represents an IC50 value>1000 nM. IF Class assigns each compound a code indicating the ability for GSPT1 degradation: A, B or C. According to the code, A represents a DC50 value of ≤30 nM, B represents a DC50 value>30 nM and ≤300 nM and C represents a DC50 value of >300 nM.", "units": {"IC50": "µM"}, "values": [
      {"smiles": "Cc1ccc(NC(=O)NC2CN(c3cc(F)c(C4CCC(=O)NC4=O)c(F)c3)C2)cc1Cl", "note": "(centres unmarked) [Compound 1, 1-(3-chloro-4-methylphenyl)-3-(1-(4-(2,6-dioxopiperidin-3-yl)-3,5-difluorophenyl)azetidin-3-yl)urea]", "IC50": "0.1 to 1"},
      {"smiles": "Cc1ccc(NC(=O)OC2CN(c3cc(F)c(C4CCC(=O)NC4=O)c(F)c3)C2)cc1Cl", "note": "(centres unmarked) [Compound 2, 1-(4-(2,6-dioxopiperidin-3-yl)-3,5-difluorophenyl)azetidin-3-yl(3-chloro-4-methylphenyl) carbamate]", "IC50": "0.1 to 1"},
      {"smiles": "O=C1CCC(c2c(F)cc(N3CC(OC(=O)Nc4cccc(OC(F)(F)F)c4)C3)cc2F)C(=O)N1", "note": "(centres unmarked) [Compound 3, 1-(4-(2,6-dioxopiperidin-3-yl)-3,5-difluorophenyl)azetidin-3-yl(3-(trifluoromethoxy)phenyl) carbamate]", "IC50": "0.1 to 1"}
    ]},
    {"target": "T1, GSPT1 (Homo sapiens, UniProt P15170+Q96SW2)", "T1 construct": "CAL-51 cells were purchased from DSMZ (cat. Number ACC302); host or cells: CAL-51", "T1 sequence (P15170 whole entry)": "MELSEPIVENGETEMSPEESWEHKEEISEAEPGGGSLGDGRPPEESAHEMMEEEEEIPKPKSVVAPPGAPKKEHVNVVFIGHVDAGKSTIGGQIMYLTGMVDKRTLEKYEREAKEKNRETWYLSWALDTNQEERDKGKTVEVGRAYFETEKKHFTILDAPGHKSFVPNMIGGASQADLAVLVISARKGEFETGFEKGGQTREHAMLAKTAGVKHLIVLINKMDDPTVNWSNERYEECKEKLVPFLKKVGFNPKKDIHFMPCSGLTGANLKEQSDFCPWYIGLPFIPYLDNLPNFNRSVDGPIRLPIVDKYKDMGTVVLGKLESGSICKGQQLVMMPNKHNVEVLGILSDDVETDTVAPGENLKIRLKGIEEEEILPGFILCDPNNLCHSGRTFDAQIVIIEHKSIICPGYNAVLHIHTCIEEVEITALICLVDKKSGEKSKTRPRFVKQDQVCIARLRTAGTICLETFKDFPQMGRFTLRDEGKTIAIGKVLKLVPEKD", "T1 sequence (Q96SW2 whole entry)": "as the sequence (Q96SW2 whole entry) above", "T1 sequence (Q16531 2-1140 partner limits assumed)": "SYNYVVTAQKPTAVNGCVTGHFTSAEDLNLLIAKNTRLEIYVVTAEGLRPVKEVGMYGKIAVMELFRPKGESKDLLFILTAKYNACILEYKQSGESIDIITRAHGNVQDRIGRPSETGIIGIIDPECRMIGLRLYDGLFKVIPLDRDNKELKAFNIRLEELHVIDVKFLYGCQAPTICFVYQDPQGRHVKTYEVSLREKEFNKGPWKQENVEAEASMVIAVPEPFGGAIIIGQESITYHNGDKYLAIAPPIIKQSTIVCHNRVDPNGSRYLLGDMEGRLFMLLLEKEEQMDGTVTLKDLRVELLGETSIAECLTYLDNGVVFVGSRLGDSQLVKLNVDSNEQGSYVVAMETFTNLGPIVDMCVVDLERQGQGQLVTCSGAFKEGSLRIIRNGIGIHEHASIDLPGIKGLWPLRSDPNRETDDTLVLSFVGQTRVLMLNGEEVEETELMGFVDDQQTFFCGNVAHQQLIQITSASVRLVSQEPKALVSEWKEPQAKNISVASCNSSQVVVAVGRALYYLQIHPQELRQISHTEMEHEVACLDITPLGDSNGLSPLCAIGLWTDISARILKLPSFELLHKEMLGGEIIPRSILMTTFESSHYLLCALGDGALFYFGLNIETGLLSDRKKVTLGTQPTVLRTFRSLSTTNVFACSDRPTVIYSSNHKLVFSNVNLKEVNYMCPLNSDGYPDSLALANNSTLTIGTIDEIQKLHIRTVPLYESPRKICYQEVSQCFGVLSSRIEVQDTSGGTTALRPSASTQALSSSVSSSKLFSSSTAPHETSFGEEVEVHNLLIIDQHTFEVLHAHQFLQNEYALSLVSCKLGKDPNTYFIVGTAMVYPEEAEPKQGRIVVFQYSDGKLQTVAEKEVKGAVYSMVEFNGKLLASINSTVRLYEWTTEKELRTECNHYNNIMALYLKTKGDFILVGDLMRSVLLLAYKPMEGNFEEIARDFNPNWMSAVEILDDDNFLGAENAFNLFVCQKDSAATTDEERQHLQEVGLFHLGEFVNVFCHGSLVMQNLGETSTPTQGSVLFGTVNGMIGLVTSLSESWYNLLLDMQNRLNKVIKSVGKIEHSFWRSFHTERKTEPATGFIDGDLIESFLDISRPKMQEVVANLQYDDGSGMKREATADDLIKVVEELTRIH", "experiment": "Immunofluorescence assay for activity to degrade GSPT1 in CAL-51 cells", "type": "cell-based", "conditions": "6 h treatment, read-out: IF Class (GSPT1 degradation, DC50)", "procedure": "Example 147: Compound Activity by Immunofluorescence Assay\nThe representative compounds were tested in an immunofluorescence assay for their activity to degrade GSPT1. CAL-51 cells were purchased from DSMZ (cat. Number ACC302), sub-cultured in 90% Dulbecco's MEM (4.5 g/L glucose, Gibco 11965)+10% heat inactivated FBS (BioConcept, 2-01F136I) and incubated at 37° C., 5% CO2. For the assay imaging microtiter plate Cell Carrier 96 Ultra (Perkin Elmer 6055302) were pre-coated with Fibronectin (Sigma F085, 30 μL at 0.2 μg/mL) in PBS (100 μL, Gibco 14190) for 45 min at room temperature, rinsed with PBS and CAL-51 cells (30K cells/well) were plated and let to adhere overnight. Cells were treated with compounds typically using a serial dilution ranging from 30 μM to 0.1 nM for 6 h. Compounds were stored at 10 mM DMSO stocks. Vehicle (DMSO), positive (CC-885, 10 μM) and rescue controls (positive control plus 0.2 μM bortezomib) were also included at this stage. Cells were subsequently rinsed with PBS and fixed in 10% Formalin solution (50 μL, Sigma HT5011)) for 20 mins at room temperature. Following three consecutive PBS washes (100 μL), cells were permeabilized in 0.1% Triton X-100 in PBS (Sigma 93443, 50 μL) for 15 min. at room temperature. Following three further PBS washes, 50 μL blocking buffer (1% BSA, Sigma A4503, in PBS) was added for 45 min for signal-to noise reduction. Primary antibody (human GSPT1, Sigma HPA052488) was diluted in blocking buffer (dil.1/300, 35 μL/well) and incubated with the cells overnight at 4° C. After three PBS washes, Alexa-fluor 488 coupled secondary antibodies (Invitrogen, A32731, dil. 1/1000), Alexa-fluor 647-Phalloidin (Invitrogen, A22287, dil. 1/200) and DAPI (Thermo, #62248, dil. 1/1000) were diluted in blocking buffer and incubated with the samples for 2 h at room temperature. After three final PBS washes, samples were conserved in 100 μL PBS in the dark, until measurement. Image acquisition was performed on the Operetta High-Content Imager (Perkin-Elmer). Fluorescence intensity of […] (GSPT1), Alexa-Fluor 647 (Actin) and DAPI (Nucleus) were measured. For the determination of GSPT1 DC50 values, a custom algorithm implemented in the PerkinElmer image analysis software Harmony-Acapella® was developed. After user-defined setting of adjustment parameters, the analysis was run identically without human intervention for all image fields. DAPI staining of the nuclei was used to determine the location of cells using standard nuclei detection modules. Segmentation artifacts were removed by threshold-based filters for area, roundness and intensity. The outline of the cells was determined analogously from the sum of the normalized, smoothed DAPI and Actin channel, starting from each nucleus. The Alexa-Fluor 488 (GSPT1) signal intensity in each cell was finally measured, in order to obtain a Mean intensity per cell. GSPT1 degradation (DC50) was calculated after normalization to controls and data import in CDD vault Database, using non-linear regression.\nas §1", "units": {"DC50": "µM"}, "values": [
      {"smiles": "Cc1ccc(NC(=O)NC2CN(c3cc(F)c(C4CCC(=O)NC4=O)c(F)c3)C2)cc1Cl", "note": "(centres unmarked) [Compound 1, 1-(3-chloro-4-methylphenyl)-3-(1-(4-(2,6-dioxopiperidin-3-yl)-3,5-difluorophenyl)azetidin-3-yl)urea]", "DC50": "≤ 0.03"},
      {"smiles": "Cc1ccc(NC(=O)OC2CN(c3cc(F)c(C4CCC(=O)NC4=O)c(F)c3)C2)cc1Cl", "note": "(centres unmarked) [Compound 2, 1-(4-(2,6-dioxopiperidin-3-yl)-3,5-difluorophenyl)azetidin-3-yl(3-chloro-4-methylphenyl) carbamate]", "DC50": "≤ 0.03"},
      {"smiles": "O=C1CCC(c2c(F)cc(N3CC(OC(=O)Nc4cccc(OC(F)(F)F)c4)C3)cc2F)C(=O)N1", "note": "(centres unmarked) [Compound 3, 1-(4-(2,6-dioxopiperidin-3-yl)-3,5-difluorophenyl)azetidin-3-yl(3-(trifluoromethoxy)phenyl) carbamate]", "DC50": "≤ 0.03"},
      {"smiles": "O=C1CCC(c2c(F)cc(N3CC(OC(=O)NC45CCC(CC4)CC5)C3)cc2F)C(=O)N1", "note": "(centres unmarked) [Compound 98, 1-(4-(2,6-dioxopiperidin-3-yl)-3,5-difluorophenyl)azetidin-3-yl bicyclo[2.2.2]octan-1-ylcarbamate]", "DC50": "≤ 0.03"},
      {"smiles": "O=C1CCC(c2c(F)cc(N3CC(OC(=O)N4CC5(COC5)C4)C3)cc2F)C(=O)N1", "note": "(centres unmarked) [Compound 105, 1-(4-(2,6-dioxopiperidin-3-yl)-3,5-difluorophenyl)azetidin-3-yl 2-oxa-6-azaspiro[3.3]heptane-6-carboxylate]", "DC50": "> 0.3"},
      {"smiles": "O=C1CCC(c2c(F)cc(N3CC(OC(=O)NCC45C[C@H]6C[C@@H](C4)C[C@@H](C5)C6)C3)cc2F)C(=O)N1", "note": "(stereo partly drawn) [Compound 106, 1-(4-(2,6-dioxopiperidin-3-yl)-3,5-difluorophenyl)azetidin-3-yl((3R,5R,7R)-adamantan-1-ylmethyl) carbamate]", "DC50": "≤ 0.03"},
      {"smiles": "O=C1CCC(c2c(F)cc(N3CC(OC(=O)NC4[C@H]5C[C@@H]6C[C@@H](C[C@H]4C6)C5)C3)cc2F)C(=O)N1", "note": "(stereo partly drawn) [Compound 107, 1-(4-(2,6-dioxopiperidin-3-yl)-3,5-difluorophenyl)azetidin-3-yl (1R,3S,5R,7R)-adamantan-2-ylcarbamate]", "DC50": "0.03 to 0.3"},
      {"smiles": "COCC(COC)NC(=O)OC1CN(c2cc(F)c(C3CCC(=O)NC3=O)c(F)c2)C1", "note": "(centres unmarked) [Compound 108, 1-(4-(2,6-dioxopiperidin-3-yl)-3,5-difluorophenyl)azetidin-3-yl (1,3-dimethoxypropan-2-yl)carbamate]", "DC50": "> 0.3"},
      {"smiles": "O=C1CCC(c2c(F)cc(N3CC(OC(=O)NCCC(F)(F)F)C3)cc2F)C(=O)N1", "note": "(centres unmarked) [Compound 109, 1-(4-(2,6-dioxopiperidin-3-yl)-3,5-difluorophenyl)azetidin-3-yl (3,3,3-trifluoropropyl)carbamate]", "DC50": "> 0.3"},
      {"smiles": "O=C1CCC(c2c(F)cc(N3CC(NC(=O)N[C@@H]4CCC(F)(F)C4)C3)cc2F)C(=O)N1", "note": "(stereo partly drawn) [Compound 111, 1-((R)-3,3-difluorocyclopentyl)-3-(1-(4-(2,6-dioxopiperidin-3-yl)-3,5-difluorophenyl)azetidin-3-yl)urea]", "DC50": "> 0.3"},
      {"smiles": "O=C1CCC(c2c(F)cc(N3CC(OC(=O)NC45CCC(C4)C5)C3)cc2F)C(=O)N1", "note": "(centres unmarked) [Compound 112, 1-(4-(2,6-dioxopiperidin-3-yl)-3,5-difluorophenyl)azetidin-3-ylbicyclo[2.1.1]hexan-1-ylcarbamate]", "DC50": "0.03 to 0.3"},
      {"smiles": "CN1CCC(CNC(=O)OC2CN(c3cc(F)c(C4CCC(=O)NC4=O)c(F)c3)C2)CC1", "note": "(centres unmarked) [Compound 114, 1-(4-(2,6-dioxopiperidin-3-yl)-3,5-difluorophenyl)azetidin-3-yl((1-methylpiperidin-4-yl)methyl)carbamate]", "DC50": "> 0.3"},
      {"smiles": "C[C@H](NC(=O)OC1CN(c2cc(F)c(C3CCC(=O)NC3=O)c(F)c2)C1)C1CCCCC1", "note": "(stereo partly drawn) [Compound 115, 1-(4-(2,6-dioxopiperidin-3-yl)-3,5-difluorophenyl)azetidin-3-yl((S)-1-cyclohexylethyl)carbamate]", "DC50": "≤ 0.03"},
      {"smiles": "O=C1CCC(c2c(F)cc(N3CC(OC(=O)NC4CCSCC4)C3)cc2F)C(=O)N1", "note": "(centres unmarked) [Compound 116, 1-(4-(2,6-dioxopiperidin-3-yl)-3,5-difluorophenyl)azetidin-3-yl(tetrahydro-2H-thiopyran-4-yl)carbamate]", "DC50": "≤ 0.03"},
      {"smiles": "O=C1CCC(c2c(F)cc(N3CC(OC(=O)NCC4CCOCC4)C3)cc2F)C(=O)N1", "note": "(centres unmarked) [Compound 117, 1-(4-(2,6-dioxopiperidin-3-yl)-3,5-difluorophenyl)azetidin-3-yl ((tetrahydro-2H-pyran-4-yl)methyl)carbamate]", "DC50": "> 0.3"},
      {"smiles": "CSCCNC(=O)OC1CN(c2cc(F)c(C3CCC(=O)NC3=O)c(F)c2)C1", "note": "(centres unmarked) [Compound 118, 1-(4-(2,6-dioxopiperidin-3-yl)-3,5-difluorophenyl)azetidin-3-yl(2-(methylthio)ethyl)carbamate]", "DC50": "> 0.3"},
      {"smiles": "CO[C@H]1CC[C@@H](NC(=O)OC2CN(c3cc(F)c(C4CCC(=O)NC4=O)c(F)c3)C2)CC1", "note": "(stereo partly drawn) [Compound 119, 1-(4-(2,6-dioxopiperidin-3-yl)-3,5-difluorophenyl) azetidin-3-yl ((1S,4S)-4-methoxycyclohexyl) carbamate]", "DC50": "> 0.3"},
      {"smiles": "CC(C)N1CCC(NC(=O)NC2CN(c3cc(F)c(C4CCC(=O)NC4=O)c(F)c3)C2)C1", "note": "(centres unmarked) [Compound 120, 1-(1-(4-(2,6-dioxopiperidin-3-yl)-3,5-difluorophenyl)azetidin-3-yl)-3-(1-isopropylpyrrolidin-3-yl) urea]", "DC50": "> 0.3"},
      {"smiles": "CN1CCC(NC(=O)NC2CN(c3cc(F)c(C4CCC(=O)NC4=O)c(F)c3)C2)C1", "note": "(centres unmarked) [Compound 121, 1-(1-(4-(2,6-dioxopiperidin-3-yl)-3,5-difluorophenyl)azetidin-3-yl)-3-(1-methylpyrrolidin-3-yl)urea]", "DC50": "> 0.3"},
      {"smiles": "CCC(C)CNC(=O)OC1CN(c2cc(F)c(C3CCC(=O)NC3=O)c(F)c2)C1", "note": "(centres unmarked) [Compound 122, 1-(4-(2,6-dioxopiperidin-3-yl)-3,5-difluorophenyl) azetidin-3-yl (2-methylbutyl)carbamate]", "DC50": "0.03 to 0.3"}
    ]}
  ]
}
